Source: US7951364B2, “CaR receptor as a mediator of migratory cell chemotaxis and/or chemokinesis” (The General Hospital Corporation, priority 2000, dated 2011)
One block for each molecule: values may come before it.

Tests used:
[1] = biological target: T1, CaR (Homo sapiens, UniProt P41180); experiment: Cytosolic calcium changes in purified monocytes (Indo-1/AM, flow cytometry); type: cell-based; settings: for Increase in cytosolic calcium: 1 μM in the presence of 1.5 mM Ca^++; for Stimulation of cytosolic calcium responses: monocytes
T1 construct: endogenous in cells; host or cells: peripheral blood CD14+ monocytes, sorted by FACS
T1 sequence (P41180 20-1078): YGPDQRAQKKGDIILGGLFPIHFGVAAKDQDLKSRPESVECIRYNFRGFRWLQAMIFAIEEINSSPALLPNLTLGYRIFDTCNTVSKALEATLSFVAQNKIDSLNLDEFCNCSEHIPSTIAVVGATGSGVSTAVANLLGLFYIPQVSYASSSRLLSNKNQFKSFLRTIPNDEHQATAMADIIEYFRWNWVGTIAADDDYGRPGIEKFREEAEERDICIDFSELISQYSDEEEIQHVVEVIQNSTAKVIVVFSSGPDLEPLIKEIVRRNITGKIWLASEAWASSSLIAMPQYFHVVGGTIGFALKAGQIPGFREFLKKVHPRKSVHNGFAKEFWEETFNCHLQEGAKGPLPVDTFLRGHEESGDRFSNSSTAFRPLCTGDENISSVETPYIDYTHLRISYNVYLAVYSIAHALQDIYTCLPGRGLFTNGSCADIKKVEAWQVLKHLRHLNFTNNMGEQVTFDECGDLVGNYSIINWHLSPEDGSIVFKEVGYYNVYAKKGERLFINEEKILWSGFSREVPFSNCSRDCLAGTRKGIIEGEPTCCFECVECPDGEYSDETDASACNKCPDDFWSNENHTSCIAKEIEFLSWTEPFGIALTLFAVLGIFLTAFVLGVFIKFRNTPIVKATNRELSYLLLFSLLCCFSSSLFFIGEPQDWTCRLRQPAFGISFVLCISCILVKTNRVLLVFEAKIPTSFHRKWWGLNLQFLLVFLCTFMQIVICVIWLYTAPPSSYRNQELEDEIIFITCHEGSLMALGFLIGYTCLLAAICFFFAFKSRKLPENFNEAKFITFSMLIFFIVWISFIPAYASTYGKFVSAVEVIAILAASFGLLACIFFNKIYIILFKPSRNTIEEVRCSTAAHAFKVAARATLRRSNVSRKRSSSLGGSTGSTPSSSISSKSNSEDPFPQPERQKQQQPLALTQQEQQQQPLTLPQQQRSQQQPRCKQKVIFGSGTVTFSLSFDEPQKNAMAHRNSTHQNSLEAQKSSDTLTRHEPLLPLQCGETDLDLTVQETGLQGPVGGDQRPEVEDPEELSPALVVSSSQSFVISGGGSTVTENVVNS
Experimental: (§1) Preparation of peripheral blood CD14^+ monocytes. Low density cells were isolated from human and mouse peripheral blood using Ficoll-Hypaque (Pharmacia, Piscataway, N.J.). CD14^+ monocytes were purified by sorting on FACSVantage (Becton Dickinson, San Jose, Calif.) based on CD14 expression. Purified cells were incubated in either calcium-free medium (Hanks' Balanced Salt Solution 1×, CellGro, Hermdon. VA) or Iscove's Medium 1×(Mod) (CellGro, Herndon, Va.) which contains 1.5 mM Ca++. […] Cells were incubated for up to 24 hours in 5% CO2 humidified air. Monocytes were then detached from the plate using a cell scraper. All calcium concentrations indicated in the presentation of the data represent the total Ca^++ present in the basal medium plus any added Ca^++.
Cytosolic calcium changes. Purified monocytes were loaded with Indo-1/AM (Molecular Probes, Eugene, Oreg.). Cells were collected on FACSVantage for 0.30 sec to establish a baseline emission value for Indo-1/AM. […] Data acquisition then continued for up to 5 minutes.

[2] = system: CD14^+ monocytes; experiment: Transmigration assay (monocyte chemotaxis, transwell); type: cell-based, human; settings: for Stimulation of transmigration: monocytes; for Inhibition of monocyte chemotaxis towards a positive gradient of Ca^++ by pretreatment: Ca^++ at 3 mM; for Interaction of chemokine with added/elevated Ca^++ on transmigration: chemokine in combination with elevated Ca^++; for Dependence of chemokine-induced chemotaxis of CD14^+ PBMC on extracellular calcium: positive concentration gradient of chemokine
Experimental: as §1
(§2) Transmigration assays. Transwells (5 μm pore size polycarbonate membrane, 12 mm diameter) (Costar, Corning, N.Y.) were used to assess cell migration using an established methodology (25). The concentration of Ca^++ in IMDM (CellGro, Herndon, Va.) in the upper and lower chambers of the transwell were adjusted according to a checkerboard analysis of chemotaxis. Calcium concentrations varied from 0 mM to 6.5 mM. Purified monocytes (1×10^4) were then placed in the top chamber with 150 μl of IMDM (CellGro, Hemdon, Va.). 500 μl of the medium was added to the bottom of the well and supplemented with varying concentrations of Ca^++ or with Ca^++ plus 10 ng/ml of MCP-1, 100 ng/ml of SDF-1α or 10 ng/ml of MIP-1α (PeproTech, Rocky Hills, N.Y.). Cells were incubated at 37° C. for 3 hours. To study inhibition of chemotaxis, cells were subsequently incubated with wortmannin (1 μM for 20 minutes at 37° C.), herbimycin (1 μM for 20 minutes at 37° C.) or genistein (1 μg/ml for 20 minutes at 37° C.), before their use in transmigration assays. At the end of the experiment, cells were then harvested from the lower chamber and counted using a hemocytometer.

[3] = system: CCR-2; experiment: Chemokine receptor expression on monocytes by flow cytometry: CCR-2; type: cell-based, human; settings: for Mean fluorescent intensity -CCR-2 Mean +/− s.e.m.: CD14^+ monocytes, agonist 1 μM in the presence of 1.5 mM Ca^++
Experimental: (§3) Chemokine receptor expression and flow cytometric analysis.
Table 1: Exposure of CD14^+ monocytes to Ca^++ enhances CCR2 expression in a dose dependent manner. Monocytes were exposed to varying concentrations of Ca^++ and to the selective CaR activator, NPS R-467 (1 μM), or to NPS S-467 (1 μM) in the presence of 1.5 mM Ca^++. The median fluorescence intensity for CCR2 expression was measured for each Ca^++ concentration and in the presence of NPS R-467 or S-467. Mean values +/−s.e.m. from three independent experiments are shown.

[4] = system: monocytes (Mac-1 positive mononuclear cells); experiment: Biologic activity in vivo: subcutaneous injection, monocyte infiltration at injection site; parameters: species or system C57BL/6 mice; settings: tissue excised 18 hours later, CaCl2 5.0 mM, NPS R-467 10 μM
Experimental: Biologic activity of ionic calcium in vivo. C57BL/6 mice (Jackson Laboratories) were injected subcutaneously at a marked, shaved spot on the abdomen with 20 μl of 5 mM CaCl2 or 20 μl of MCP-1 at a concentration of 10 ng/ml, with a combination of MCP-1 and 5 mM CaCl2 or with 10 μM NPS R-467 in PBS. Control mice were injected subcutaneously with 20 μl PBS alone. All subcutaneously injected agents contained less than 0.004 ng/ml of LPS by the limulus assay (Sigma) as previously described (Bleul, C. C., et al., J Exp Med, 1996, 184:1101-1109). Mice were sacrificed by CO2 asphyxiation 18 hours after injection, and injection sites were excised, snap-frozen and 4 μm cryosections were obtained and stained with hematoxylin and eosin. Immunocytochemistry was performed on the frozen sections using alkaline phosphatase-conjugated Mac-1 antibody (Pharmingen) as previously described and assessed by light microscopy (Bleul, C. C., et al., supra).

[5] = system: mononuclear cells derived from neonatal CaR −/−, +/− or +/+ mice; experiment: Transmigration assay with cells from CaR knockout and wild-type mice; type: cell-based, mouse; settings: CaR −/−, +/− or +/+ cells
Experimental: as §2
CaR−/− were bred as previously described (Ho, C., et al., Nat Genet 1995, 11:389-94). To produce CaR−/− mice for this study, heterozygote mice were intercrossed. The mice studied were either 129S6/svev or 129S6/svev/Swiss Webster mixed genetic background. […]

[6] = system: CaR; experiment: CaR surface expression on monocytes after exposure to chemokines; type: cell-based, human; settings: monocytes after chemokine stimulation; untreated 361+/−25
Description: as §3
In order to assess whether there was reciprocal regulation of the CaR by chemokine receptors, we evaluated CaR surface expression on cells before and after exposure to the chemokines, SDF-1α or MCP-1. The mean fluorescence intensity of CaR expression was 361+/−25 (mean+/−s.e.m.) units for untreated monocytes and rose to 673+/−59 following MCP-1 stimulation. Monocytic expression of CaR rose to 519+/−48 with SDF-1α a treatment.

[7] = system: human CD34^+ cells; experiment: In vitro assays of human CD34^+ hematopoietic progenitor cells; type: cell-based; settings: in the setting of CaR activation
Description: Calcium ions effect Hematopoietic Progenitor Cells. We also assessed the effects of calcium, through its interaction with the calcium sensing receptor (CaR) using in vitro assays of human CD34^+ cells. […] Therefore, calcium participates in maintaining candidate stem cells in a primitive, undifferentiated state. […] This was accompanied by a decrease in the level of LTC-ICs in the bone marrow, but an increase in the level of CFU-Cs, with a converse increase in hematopoietic stem cells in is the peripheral blood.

- Increase in cytosolic calcium [1]: Sustained increases
- Stimulation of cytosolic calcium responses [1]: Stimulation
- Mean fluorescent intensity -CCR-2 Mean +/− s.e.m. [3]: 460 +/− 52
Molecule: COc1cccc([C@@H](C)NCCCc2ccccc2)c1 [NPS R-467, reference compound]
- Potency of R-467 vs. S-467 in enhancing actions of high Ca^++ (cytosolic calcium, chemotaxis) [2]: greater potency
- Stimulation of transmigration [2]: Stimulation
- Accumulation of mononuclear cells staining positive for Mac-1 at injection site [4]: Accumulation

- Increase in cytosolic calcium [1]: Sustained increases
- Stimulation of cytosolic calcium responses [1]: Stimulation
- Mean fluorescent intensity -CCR-2 Mean +/− s.e.m. [3]: 417 +/− 48
Molecule: COc1cccc([C@H](C)NCCCc2ccccc2)c1 [NPS S-467, reference compound]
- Stimulation of transmigration [2]: Stimulation

Molecule: C[C@@H]1C[C@@H]([C@H](O)CC2CC(=O)NC(=O)C2)C(=O)[C@@H](C)C1 [cyclohexamide, reference compound]
- Effect on the Ca^++-mediated upregulation of CCR-2 ([3]; inhibition of new protein synthesis): no effect

Molecule: O=c1c(-c2ccc(O)cc2)coc2cc(O)cc(O)c12 [genistein, reference compound]
- Inhibition of Ca^++-induced monocyte chemotaxis by pretreatment [2]: inhibitable
- Inhibition of monocyte chemotaxis towards a positive gradient of Ca^++ by pretreatment [2]: inhibitable

Molecule: CO[C@H]1[C@@H](OC)C[C@H](C)[C@@H](OC)C2=CC(=O)C=C(NC(=O)/C(C)=C/C=C\[C@H](OC)[C@@H](OC(N)=O)/C(C)=C/[C@@H]1C)C2=O [herbimycin, reference compound]
- Inhibition of Ca^++-induced monocyte chemotaxis by pretreatment [2]: inhibitable
- Inhibition of monocyte chemotaxis towards a positive gradient of Ca^++ by pretreatment [2]: inhibitable

- Stimulation of cytosolic calcium responses [1]: Stimulation
Molecule: NCCCNCCCCNCCCN [spermine, reference compound]
- Stimulation of transmigration [2]: Stimulation

Molecule: MCP-1: chemokine (PeproTech), ligand of CCR-2
- Interaction of chemokine with added/elevated Ca^++ on transmigration [2]: synergistic
- Dependence of chemokine-induced chemotaxis of CD14^+ PBMC on extracellular calcium [2]: dependent upon extracellular calcium
- Chemotaxis of mouse mononuclear cells [5]: capable of chemotaxing
- Mean fluorescence intensity of CaR expression (mean+/−s.e.m.) [6]: 673+/−59 units
- Accumulation of mononuclear cells staining positive for Mac-1 at injection site [4]: Accumulation

Molecule: SDF-1α
- Interaction of chemokine with added/elevated Ca^++ on transmigration [2]: no synergistic effect
- Dependence of chemokine-induced chemotaxis of CD14^+ PBMC on extracellular calcium [2]: induced migration independent of calcium
- Mean fluorescence intensity of CaR expression (mean+/−s.e.m.) [6]: 519+/−48 units
- Chemotactic responses of primitive hematopoietic cells to SDF-1α [7]: attenuated

B1: MIP-1α: chemokine (PeproTech) (protein, UniProt P10147 24-92, looked up)
C-C motif chemokine 3: SLAADTPTACCFSYTSRQIPQNFIADYFETSSQCSKPGVIFLTKRSRQVCADPSEEWVQKYVSDLELSA
- Interaction of chemokine with added/elevated Ca^++ on transmigration [2]: no synergistic effect
- Dependence of chemokine-induced chemotaxis of CD14^+ PBMC on extracellular calcium [2]: induced migration independent of calcium
